Literature values, collected in patent US11497760B2, “Method for solubilizing poorly water-soluble dietary supplements and pharmaceutically active agents” (ATHENION AG, priority 2016, dated 2022).

Legend:
P-glycoprotein = P-glycoprotein (Homo sapiens, UniProt P08183)
human CYP3A4 = human CYP3A4 (Homo sapiens, UniProt P08684)
Chain of human CYP3A4 (P08684 whole entry): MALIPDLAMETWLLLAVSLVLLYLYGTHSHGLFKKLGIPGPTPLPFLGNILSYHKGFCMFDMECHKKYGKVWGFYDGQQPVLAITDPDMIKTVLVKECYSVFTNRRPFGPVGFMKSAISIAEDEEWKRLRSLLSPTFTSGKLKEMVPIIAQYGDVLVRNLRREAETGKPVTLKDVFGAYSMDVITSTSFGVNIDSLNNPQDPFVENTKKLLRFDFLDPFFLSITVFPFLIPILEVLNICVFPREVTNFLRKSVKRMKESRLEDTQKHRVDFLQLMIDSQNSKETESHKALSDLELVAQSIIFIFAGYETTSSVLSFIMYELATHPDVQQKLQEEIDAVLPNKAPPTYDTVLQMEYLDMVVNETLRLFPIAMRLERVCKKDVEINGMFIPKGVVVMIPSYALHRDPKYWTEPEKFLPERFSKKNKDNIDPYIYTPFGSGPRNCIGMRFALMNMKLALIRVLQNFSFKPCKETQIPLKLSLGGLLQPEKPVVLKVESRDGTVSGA

Chain of P-glycoprotein (P08183 whole entry): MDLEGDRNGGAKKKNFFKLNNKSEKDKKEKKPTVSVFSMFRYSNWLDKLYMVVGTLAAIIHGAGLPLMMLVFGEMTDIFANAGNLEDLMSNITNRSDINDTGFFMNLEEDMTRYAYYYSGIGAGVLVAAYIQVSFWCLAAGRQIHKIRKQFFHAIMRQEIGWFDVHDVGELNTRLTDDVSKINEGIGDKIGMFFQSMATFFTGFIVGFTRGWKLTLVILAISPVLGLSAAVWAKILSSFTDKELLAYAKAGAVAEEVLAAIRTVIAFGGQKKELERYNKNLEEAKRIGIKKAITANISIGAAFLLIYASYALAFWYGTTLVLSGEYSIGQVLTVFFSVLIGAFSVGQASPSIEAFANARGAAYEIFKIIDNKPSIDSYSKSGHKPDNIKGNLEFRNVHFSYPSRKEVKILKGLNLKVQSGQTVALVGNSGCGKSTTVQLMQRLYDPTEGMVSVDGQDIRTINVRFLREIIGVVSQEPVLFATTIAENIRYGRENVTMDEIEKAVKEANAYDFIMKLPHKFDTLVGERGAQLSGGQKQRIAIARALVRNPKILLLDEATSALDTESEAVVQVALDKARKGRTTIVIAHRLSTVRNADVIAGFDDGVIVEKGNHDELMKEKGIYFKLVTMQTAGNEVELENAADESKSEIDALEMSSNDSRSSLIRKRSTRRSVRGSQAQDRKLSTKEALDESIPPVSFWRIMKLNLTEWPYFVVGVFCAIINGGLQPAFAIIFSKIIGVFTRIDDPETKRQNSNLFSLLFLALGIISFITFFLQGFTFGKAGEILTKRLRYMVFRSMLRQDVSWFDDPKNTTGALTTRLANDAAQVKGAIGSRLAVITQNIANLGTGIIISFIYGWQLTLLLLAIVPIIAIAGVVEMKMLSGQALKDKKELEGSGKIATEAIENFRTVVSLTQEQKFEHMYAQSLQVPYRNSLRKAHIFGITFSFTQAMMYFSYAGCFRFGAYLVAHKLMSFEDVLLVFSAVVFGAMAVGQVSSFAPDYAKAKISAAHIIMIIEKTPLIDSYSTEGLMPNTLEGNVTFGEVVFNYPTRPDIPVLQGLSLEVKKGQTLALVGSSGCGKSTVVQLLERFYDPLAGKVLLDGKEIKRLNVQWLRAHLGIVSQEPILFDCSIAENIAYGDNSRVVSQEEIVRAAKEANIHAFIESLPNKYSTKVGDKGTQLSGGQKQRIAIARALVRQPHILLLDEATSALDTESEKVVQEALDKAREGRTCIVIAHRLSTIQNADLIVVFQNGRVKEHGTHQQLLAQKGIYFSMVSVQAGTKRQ

For `O=C(C=CC=Cc1ccc2c(c1)OCO2)N1CCCCC1` [Piperine, 1-[5-(1,3-benzodioxol-5-yl)-1-oxo-2,4-pentadienyl]piperidine], the “inhibition of P-glycoprotein” value (P-glycoprotein) is listed as “inhibit” and the “inhibition of human CYP3A4” value (human CYP3A4) is listed as “inhibit”.
